In patent US20200016078A1, “COMPOSITION FOR TRANSDERMAL DELIVERY OF MICRONUTRIENTS AND METHOD OF PREPARATION THEREOF” (CERELIA NUTRITECH PVT LTD, priority 2017, published 2020):

Details: rat, in vivo, po, 10 mg
Method: The compound was dissolved in 5 ml of distilled water and then made up to 10 ml with distilled water to make a solution of 5 mg/ml concentration. For group 1 (G1), a dose volume of 2 ml formulation containing 10 mg of reference standard was administered to each rat irrespective of the body weight. Test formulation is as provided in example 5B. Test formulation was used as such as the formulation is in gel form for dermal application. 3 gm of the gel formulation containing 10 mg of test cynacobalamine is a test formulation.
One day prior to the dermal application of test item formulation for group 2 (G2) rats, the hair from the back of each rat was removed using hair removal cream and washed with saline. On the day of experiment, the shaved area was wiped with 70% isopropyl alcohol and dried. […] Immediately after application, the area was covered with non-absorbable cotton and was secured with adhesive tape.
Blood was collected through retro orbital plexus using capillary at specified time points i.e. 0.5 hr, 1.0 hr, 3.0 hr, 6.0 hr & 24.0 hrs post-dose. To collect the serum sample, the tubes were kept for 30 min. at room temperature and allowed for coagulation and then separated by centrifugation the tubes at 3000 rpm for 10 min at 4° C.

AUC (0-∞): 2775.15 ng·h/mL
Cmax: 205.67 ng/mL
Tmax: 1 h
Substance: Cynacobalamine [Oral]
